Reference: paper PMC4411110 (PLoS ONE, 2015)
“Also recorded” adds a separate entry of the source.

What was measured:
MOG35-55-induced EAE = test: EAE mouse model of MS, clinical paralysis score; format: in vivo, female C57BL/6 mice; conditions: EAE mice, oral daily from onset of signs, TM5484 5 mg/kg/d, fingolimod 0.5 mg/kg, 6α-methylprednisolone 5 mg/kg
Method: (§1) All animal experiments conformed to the National Health Guide for the Care and Use of Laboratory Animals and were approved by the Animal Committee at Tohoku University. Studies were performed on 11-week-old female C57BL/6 mice (n = 8–10, each group) and 10-week-old Lewis rats (n = 6–8, each group), obtained from SJC, Japan SLC (Hamamatsu, Shizuoka, Japan). Animals were housed under a 12h light-dark cycle and given regular chow, MF (Oriental Yeast Co., Ltd.).
Experimental autoimmune encephalomyelitis (EAE) was induced in mice as described previously. Briefly, on day 0, 200 microgramme of myelin oligodendrocyte glycoprotein^35–55 (MOG^35–55) peptide was injected s.c, twice, in the lower and upper back of the mice, in an equal volume of complete Freund’s adjuvant (Hooke Laboratories, Inc.). Next, 200 ng of pertussis toxin (Hooke Laboratories, Inc.) dissolved in PBS was applied i.p. On day 1, another 200 ng of pertussis toxin was administered. For rats, 200 microgramme of myelin basic protein^69-88 (MBP^69-88) was injected (Hooke Laboratories, Inc.) twice, in the lower back on day 0. Animals were scored for motor paralysis on a daily basis. Disease severity was assessed using a scale ranging from 0 to 5 (Hooke Laboratories, Inc.): 0, normal; 1, limp tail; 1.5, Limp tail and hind leg inhibition; 2, Limp tail and weakness of hind legs.; 2.5, Limp tail and dragging of hind legs; 3, Limp tail and complete paralysis of hind legs; 3.5, Limp tail and complete paralysis of hind legs and Hind legs are together on one side of body; 4, Limp tail, complete hind leg and partial front leg paralysis; 4.5, Complete hind and partial front leg paralysis, no movement around the cage; 5, Mouse is spontaneously rolling in the cage. Mice were typically observed for 28 days, during which they will remain chronically paralyzed.

in vitro = conditions: rat
Method: (§2) This BBB model was reconstructed by the culture of both primary rat brain micro vascular endothelial cells and rat brain pericytes separated by a macroporous Millicell membrane (24 wells, pore size: 3.0 μm, Millipore, Bedford, MA, USA). Briefly, we pre-incubated the BBB kits at 37 °C in 5% CO2 conditions for 4–5 days, in order to strongly reconstruct the barrier integrity and tight-junctions. To evaluate the barrier integrity and confirm the functionality of the tight-junctions, trans-endothelial electrical resistance (TEER) was measured at day 5-post incubation. Assays were carried out using TEER values in the range of 150-to 300-Ω cm^2 [11]. Once the tight junctions reach a TEER of 300-Ω cm^2, 0.9 mL PBS-based assay medium was added to blank 24-well culture plates. Prior to incubation, selected compounds were diluted in DMSO 100%. The compounds suspended in 0.2 mL assay medium were fortified into the apical side and incubated for 30 min. Next, the medium from both the apical and the basolateral sides were collected and further analyzed by liquid chromatography–mass spectrometry.

[1] = tested on: in vitro model of BBB (primary rat brain micro vascular endothelial cells and rat brain pericytes); test: In vitro BBB penetration assay (BBB Kit RBT-24H); conditions: in vitro BBB model, apical to basolateral, 30 min, n = 3
Method: as §2

[2] = tested on: spinal cord (lumbar segments); test: Histology of spinal cord of EAE mice; format: in vivo, female C57BL/6 mice
Excerpt: Mice were perfused in the heart with saline 0.9% followed by neutral-buffered formalin 10% (n = 3-4/group). Slides from different sections of the spinal cord were immersed and fixed overnight in 10% neutral-buffered formalin. Next, samples were transfered and immersed in a 10, 20 and 30% sucrose solution for consecutive nights. Sections were embedded in O.C.T compounds (Sakura Finetek, Japan) for the subsequent immunostaining study. Four sections of the spinal cord from each group were examined. Since the clinical manifestations are typically initiated as limp tail and hind-limb paralysis in this model, we focused on lumbar spinal segments. Frozen specimens were then incubated overnight at room temperature and stained with Cd11b for macrophage infiltration (Abcam), myelin basic protein (MBP) for demyelination, neurofilament non-phosphorylated (SMI-32) for axonal damage, collagen IV for extracellular matrix depositions (Abcam) and fibrinogen (Funakoshi, Japan). Incubation for 2 hs at room temperature in corresponding biotinylated goat secondary antibody was performed. For immunofluorescence, the sections were incubated overnight at room temperature using primary antibody Iba-1 for microglia activation (Wako Chemicals). After wash in PBS, the sections were then incubated in corresponding fluorescent goat secondary antibody (Wako Chemicals). For Cd11b, the number of positive macrophage was quantified as the total cells per selected area. The area of demyelination was calculated as the percentage of negative staining for MBP per selected area. As for axonal damage and collagen IV deposition, the positive staining per selected area was analyzed and calculated as the percentage per total area. For Quantification analysis was assessed by ImageJ TM software (version 1.440, National Institute of Health, Bethesda, MD, USA).

[3] = In vitro BBB penetration assay (BBB Kit RBT-24H); conditions: rat
Method: as §2

MBP69-88-induced EAE = test: EAE rat model of MS, clinical paralysis score; format: in vivo; conditions: EAE Lewis rats, from onset of signs, dpi 15; TM5484 5 mg/kg/d, fingolimod 0.5 mg/kg
Method: as §1
Experimental autoimmune encephalomyelitis (EAE) was induced in mice as described previously. […] Animals were scored for motor paralysis on a daily basis. Disease severity was assessed using a scale ranging from 0 to 5 (Hooke Laboratories, Inc.): 0, normal; 1, limp tail; 1.5, Limp tail and hind leg inhibition; 2, Limp tail and weakness of hind legs.; 2.5, Limp tail and dragging of hind legs; 3, Limp tail and complete paralysis of hind legs; 3.5, Limp tail and complete paralysis of hind legs and Hind legs are together on one side of body; 4, Limp tail, complete hind leg and partial front leg paralysis; 4.5, Complete hind and partial front leg paralysis, no movement around the cage; 5, Mouse is spontaneously rolling in the cage. […]

[4] = tested on: MOG35-55-induced EAE, motor coordination; test: Foot print analysis in EAE mice; format: in vivo, female C57BL/6 mice
Method: Briefly, to obtain footprints, the hind- and forefeet of the mice were coated with black non-toxic paint. The floor of the open field box was covered with white paper. Each mouse was placed in a corner of the open field and allowed to walk across the paper, leaving a track of footprints. If a mouse didn’t walk forward, the task was considered a failure. For each step parameter, three values were measured from each run, excluding footprints made at the beginning and end of the run where the animal was initiating and finishing movement respectively. The mean value of each set of three values was used for analysis.

[5] = tested on: gene expression in spinal cord and spleen; test: qRT-PCR gene expression in spinal cord and spleen of EAE mice; format: in vivo, female C57BL/6 mice
Method: Spinal cord was harvested from mice and snap frozen in liquid nitrogen (n = 6–7, each group). Total RNA was extracted from spinal cord and spleen using ISOGEN (Nippon Gene). qRT-PCR analysis was performed as described previously. Briefly, qRT-PCR was performed on a LightCycler rapid thermal cycler system using a LightCycler 480 SYBR Green I Master (Roche Applied Science) according to the manufacturer's instructions. Data were analyzed by using the comparative Ct method as means of relative quantification, normalized to an endogenous reference (b-actin, Actb). The sequences of the primers are described below: […]

Which results are given for `C[C@H]1C[C@@H]2[C@H]([C@@H](O)C[C@@]3(C)[C@H]2CC[C@]3(O)C(=O)CO)[C@@]2(C)C=CC(=O)C=C12` [6α-methylprednisolone]?
motor paralysis score (MOG35-55-induced EAE): ameliorated the motor paralysis; motor paralysis score (MOG35-55-induced EAE; listed as 6-α methylprednisone): attenuated the paralysis score to the level observed with TM5484

For `CC(C)NCC(O)COc1cccc2ccccc12` (stereo not shown) [Propanolol], which Papp at 30 min (in vitro) is on record?
The Papp at 30 min was 31.3 ×10⁻⁶ cm/s.

Which “apparent permeability coefficient (Papp)” value [1] does the source give for `O=C(COCC(=O)Nc1ccc(Cl)cc1C(=O)O)Nc1cccc(-c2ccoc2)c1` [TM5441] here?
The value was 32.1 x 10^–6 cm/s.

With `CCCCCCCCc1ccc(CCC(N)(CO)CO)cc1` [fingolimod] as the molecule, how does the “fibrin (fibrinogen) deposition” value [2] read?
Its value is “no changes were observed”.

And the “collagen IV deposition” value ([2]; dpi 28)?
Its value is “able to ameliorate collagen IV deposition”.

What about the “demyelination (anti-MBP staining)” value ([2]; dpi 28) of the same molecule?
Its value is “reduced”.

What about the “macrophage accumulation and microglia activation (Cd11b and Iba-1 staining)” value ([2]; dpi 28, TM5484 5 mg/kg/d, fingolimod 0.5 mg/kg/d) of the same molecule?
The value was “significantly reduced; also recorded: ameliorated”.

And the Papp at 30 min [3]?
The Papp at 30 min was 56 ×10⁻⁶ cm/s.

What about the motor paralysis score (MOG35-55-induced EAE) of the same molecule?
The motor paralysis score was “ameliorated the motor paralysis; also recorded: attenuated the paralysis score to the level observed with TM5484”.

And the “paralysis score at the peak of the paralysis” value (MBP69-88-induced EAE)?
Its value is “reduced the paralysis score to a level similar to TM5484”.

What about the stride length ([4]; dpi 28, TM5484 5 mg/kg/d, fingolimod 0.5 mg/kg) of the same molecule?
Its stride length is 5.48 cm.

What about the “stride length (in words)” value ([4]; oral administration) of the same molecule?
Its value is “significantly preserved the stride length”.

And the BDNF expression ([5]; spinal cord)?
Its BDNF expression is “did not restore BDNF expression”.

And the ChAT expression ([5]; spinal cord)?
The ChAT expression was “up-regulated ChAT expression”.

What about the “PAI-1 mRNA expression” value ([5]; spinal cord) of the same molecule?
The value was “no effects”.

And the “gene expression of inflammatory markers (TNF-α, IL-6, Ccl2, Cd68)” value ([5]; spinal cord and spleen, dpi 28, treatment from onset of paralysis)?
Its value is “able to modulate these inflammatory effects”.

And the BDNF expression ([5]; spinal cord, listed as Fingolimod)?
The BDNF expression was “no effects”.

What about the “expression of IL-10” value ([5]; spleen) of the same molecule?
Its value is “upregulated”.
